Structures can show the parent of a compound that is named as a salt.
Legend:
eosinophil infiltration [1] = assay: Eosinophil accumulation model in the rat (Compound 48/80 injected into pleural cavities); assay type: in vivo, male Sprague Dawley rats; conditions: b.i.d. at 0 and 8 hours
Protocol: The compounds of the present invention may also be further characterized in other in vivo assays, such as the eosioophil accumulation model tested in the rat. Fifty μg of Compound 48/80 was injected into the pleural cavities of male Sprague Dawley rats. After 24 hrs, each cavity was washed twice with Hank's Balanced Salt Solution containing 0.2% EDTA. Total cell and eosinophil counts were determined. Test compounds were given intraveneously, orally or subcutaneously, b.i.d. at 0 and 8 hours.

[2] = Mouse bio-assay: serum concentration after oral dosing, determined by direct binding assay of diluted serum; conditions: 10 mg/kg; for concentration at 15 min: female, Balb/c, serum, po
Protocol: (§1) A compound was dissolved or suspended with an appropriate solvent at 1 mg/mL. Female Balb/c mice (7–9 weeks old) were given the compound orally. Blood samples were collected from the postcaval vein of the anesthetized mice after fifteen minutes. Serum was prepared and stored at −20° C. Serum concentration of the compound was determined from inhibitory activities of the diluted serum by a direct binding assay using VLA-4-expressing cells and VCAM-IgG fusion protein. Serum concentration determined by this method correlated well with the concentration determined by LC/MS/MS methodologies.

[3] = test system: VLA-4-mediated lymphocyte adherence; conditions: Molossi et al. 1995; cited from earlier work
[4] = test system: accelerated coronary arteriopathy; conditions: Molossi et al. 1995; cited from earlier work
eosinophil infiltration [5] = assay: Murine model of Ascaris-induced bronchial inflammation: eosinophil infiltration into bronchoalveolar lavage fluid; assay type: in vivo; conditions: mouse
Protocol: The VLA-4 inhibitors may be further characterized in in vivo assays. One such assay examines the inhibition of eosinophil infiltration into the bronchoalveolar lavage fluid in the mouse (murine) model. In this assay, the animals are treated with cyclophosphamide on day 0. On days 2 and 14, the animals are immunized intraperitoneally with Ascaris suum extract. Seven days later, the animals are treated with various doses of the VLA-4 inhibitor. Shortly after drug administration, the animals are challenged with Ascaris suum extract by instillation into the trachea. Bronchoalveolar lavage of the animal is performed by instilling saline into the lung, 48 hours later. Total cell and eosinophil counts in the lavage are determined.

[6] = Pharmacokinetic evaluation in mouse; assay type: in vivo; conditions: for AUC (total area under the plasma concentration versus time curve): LC/MS/MS; for clearance / MRT: plasma; for clearance: read-out: CL (apparent plasma clearance); for MRT: read-out: MRT (mean residence time)
[7] = Pharmacokinetic evaluation in rat; assay type: in vivo; conditions: for AUC (total area under the plasma concentration versus time curve): LC/MS/MS; for clearance / MRT: plasma, 10 mg/kg; for clearance: read-out: CL (apparent plasma clearance); for MRT: read-out: MRT (mean residence time)
in vivo [8] = conditions: female, Balb/c, mouse, po, 10 mg/kg
Protocol: as §1

VLA-4-expressing cells = conditions: Wang et al. 1995; cited from earlier work
in vivo [9] = conditions: monkey, 2 mg/kg
[10] = Pharmacokinetic evaluation in monkey, single intravenous dosage; conditions: single intravenous dosage (2 mg/kg), LC/MS/MS
[11] = 10 mg/kg (p.o.), line of AUC 0–6 hr
[12] = 10 mg/kg (p.o.), line of AUC 0–∞
[13] = iv, 10 mg/kg, 10 mg/kg (i.v.), line of AUC 0–6 hr
[14] = iv, 10 mg/kg, 10 mg/kg (i.v.), line of AUC 0–∞
[15] = iv, 10 mg/kg (i.v.), line of AUC 0–6 hr
[16] = iv, 10 mg/kg (i.v.), line of AUC 0–∞
[17] = po, 10 mg/kg (p.o.), line of AUC 0–6 hr
[18] = po, 10 mg/kg (p.o.), line of AUC 0–∞

## O=C(Nc1ccc(CC(=O)N2C[C@@H](F)C[C@H]2COc2ccc(C(=O)O)cc2)cc1Cl)Nc1ccccc1Br [Compound 92, 4-[1-[4-[N′-(2-bromophenyl)ureido]-3-chlorophenylacetyl]-(4S)-fluoro-(2S)-pyrrolidinyl]methoxybenzoic acid]
Eosinophil infiltration [1]; 50 mg/kg 2 days, s.c.
  % Inhibition of Eosinophil Infiltration: 43.1%
[2]
  concentration at 15 min: 2160 ng/mL

## phenylacetic acid-Leu-Asp-Phe-d-Pro-amide
[3]
  VLA-4-mediated lymphocyte adherence in vitro: inhibited
[4]
  accelerated coronary arteriopathy in rabbit cardiac allografts: reduced

## Cc1ccccc1NC(=O)Nc1ccc(CC(=O)N2C[C@@H](F)C[C@H]2COc2ccc(C(=O)O)cc2)cc1Cl [Compound 90, 4-[1-[3-chloro-4-[N′-(2-methylphenyl)ureido]phenylacetyl]-(4S)-fluoro-(2S)-pyrrolidinyl]methoxybenzoic acid]
Eosinophil infiltration [5]; 10 mg/kg t.i.d. × 2 days, p.o.
  % Inhibition of Eosinophil Infiltration: 18.1%
Eosinophil infiltration [5]; 30 mg/kg b.i.d. × 2 days, i.v.
  % Inhibition of Eosinophil Infiltration: 47.3%
Eosinophil infiltration [5]; 30 mg/kg t.i.d. × 2 days, p.o.
  % Inhibition of Eosinophil Infiltration: 39.1%
Eosinophil infiltration [5]; 50 mg/kg t.i.d. × 2 days, p.o.
  % Inhibition of Eosinophil Infiltration: 45.9%
Eosinophil infiltration [1]; 3 mg/kg 2 days, i.v.
  % Inhibition of Eosinophil Infiltration: 25.4%
Eosinophil infiltration [1]; 10 mg/kg 2 days, i.v.
  % Inhibition of Eosinophil Infiltration: 46.7%
Eosinophil infiltration [1]; 30 mg/kg 2 days, i.v.
  % Inhibition of Eosinophil Infiltration: 83.7%
Eosinophil infiltration [1]; 50 mg/kg 2 days, p.o.
  % Inhibition of Eosinophil Infiltration: 50.5%
[6]; 10 mg/kg (i.v.), 0–6 hr
  AUC (total area under the plasma concentration versus time curve): 8995 (0–6 hr) ng · h/mL
[6]; 10 mg/kg (i.v.), 0–∞
  AUC (total area under the plasma concentration versus time curve): 9219 (0–∞) ng · h/mL
[6]; 10 mg/kg (p.o.), 0–6 hr
  AUC (total area under the plasma concentration versus time curve): 2540 (0–6 hr) ng · h/mL
[6]; 10 mg/kg (p.o.), 0–∞
  AUC (total area under the plasma concentration versus time curve): 2950 (0–∞) ng · h/mL
[6]; [11]
  CL (apparent plasma clearance): 65.62 mL/min/kg
[6]; [12]
  CL (apparent plasma clearance): 56.50 mL/min/kg
[6]; [13]
  clearance: 18.5 mL/min/kg
  MRT: 30 min
[6]; [14]
  clearance: 18.1 mL/min/kg
  MRT: 42 min
[6]; po, 10 mg/kg, 10 mg/kg (p.o.), line of AUC 0–6 hr
  MRT: 72 min
[6]; po, 10 mg/kg, 10 mg/kg (p.o.), line of AUC 0–∞
  MRT: 150 min
[7]; 10 mg/kg (i.v.), 0–6 hr
  AUC (total area under the plasma concentration versus time curve): 31915 (0–6 hr) ng · h/mL
[7]; 10 mg/kg (i.v.), 0–∞
  AUC (total area under the plasma concentration versus time curve): 33488 (0–∞) ng · h/mL
[7]; 10 mg/kg (p.o.), 0–6 hr
  AUC (total area under the plasma concentration versus time curve): 11454 (0–6 hr) ng · h/mL
[7]; 10 mg/kg (p.o.), 0–∞
  AUC (total area under the plasma concentration versus time curve): 19968 (0–∞) ng · h/mL
[7]; [11]
  CL (apparent plasma clearance): 17.85 mL/min/kg
[7]; [12]
  CL (apparent plasma clearance): 9.99 mL/min/kg
[7]; [15]
  clearance: 5.23 mL/min/kg
  MRT: 48 min
[7]; [16]
  clearance: 4.98 mL/min/kg
  MRT: 66 min
[7]; [17]
  MRT: 102 min
[7]; [18]
  MRT: 528 min
[2]; oral, 15 minutes post-administration
  Serum Concentration: 3659 ng/mL

## COC(=O)c1ccc(OC[C@@H]2C[C@@H](N(C)C)CN2C(=O)Cc2ccc(NC(=O)Nc3ccccc3C)c(OC)c2)cc1 [Compound 156, methyl 4-[trans-4-dimethylamino-1-[3-methoxy-4-[N′-(2-methylphenyl)ureido]phenylacetyl]-(2S)-pyrrolidinyl]methoxybenzoate HCl salt]
In vivo [8]
  concentration at 15 min: 285 ng/mL

## Cc1cc(CC(=O)N2C[C@@H](F)C[C@H]2COc2ccc(C(=O)O)cc2)ccc1NC(=O)Nc1ccccc1Cl [Compound 79, 4-[1-[4-[N′-(2-chlorophenyl)ureido]-3-methylphenylacetyl]-(4S)-fluoro-(2S)-pyrrolidinyl]methoxybenzoic acid]
Eosinophil infiltration [5]; 30 mg/kg b.i.d. × 2 days, i.v.
  % Inhibition of Eosinophil Infiltration: 35.9%
[7]; 10 mg/kg (i.v.), 0–6 hr
  AUC (total area under the plasma concentration versus time curve): 5259 (0–6 hr) ng · h/mL
[7]; 10 mg/kg (i.v.), 0–∞
  AUC (total area under the plasma concentration versus time curve): 5389 (0–∞) ng · h/mL
[7]; 10 mg/kg (p.o.), 0–6 hr
  AUC (total area under the plasma concentration versus time curve): 22119 (0–6 hr) ng · h/mL
[7]; 10 mg/kg (p.o.), 0–∞
  AUC (total area under the plasma concentration versus time curve): 24867 (0–∞) ng · h/mL
[7]; [11]
  CL (apparent plasma clearance): 8.5 mL/min/kg
[7]; [12]
  CL (apparent plasma clearance): 6.7 mL/min/kg
[7]; [15]
  clearance: 31.7 mL/min/kg
  MRT: 24 min
[7]; [16]
  clearance: 30.9 mL/min/kg
  MRT: 36 min
[7]; [17]
  MRT: 30 min
[7]; [18]
  MRT: 42 min
[2]
  concentration at 15 min: 618 ng/mL

## O=C(Nc1ccccc1Cl)Nc1ccc(CC(=O)N2C[C@@H](F)C[C@H]2COc2ccc(C(=O)O)cc2)cc1Br [Compound 95, 4-[1-[3-bromo-4-[N′-(2-chlorophenyl)ureido]phenylacetyl]-(4S)-fluoro-(2S)-pyrrolindinyl]methoxybenzoic acid]
Eosinophil infiltration [1]; 50 mg/kg 2 days, s.c.
  % Inhibition of Eosinophil Infiltration: 40.9%

## CQIDSPC [Synthetic VCAM-1 peptide]
VLA-4-expressing cells
  adhesion of VLA-4-expressing cells to purified VCAM-1: inhibit the adhesion

## Cc1cc(CC(=O)N2C[C@@H](F)C[C@H]2COc2ccc(C(=O)O)cc2)ccc1NC(=O)Nc1ccccc1Br [Compound 80, 4-[1-[4-[N′-(2-bromophenyl)ureido]-3-methylphenylacetyl]-(4S)-fluoro-(2S)-pyrrolidinyl]methoxybenzoic acid]
Eosinophil infiltration [1]; 50 mg/kg 2 days, s.c.
  % Inhibition of Eosinophil Infiltration: 65.3%
[6]; 10 mg/kg (i.v.), 0–6 hr
  AUC (total area under the plasma concentration versus time curve): 5259 (0–6 hr) ng · h/mL
[6]; 10 mg/kg (i.v.), 0–∞
  AUC (total area under the plasma concentration versus time curve): 5389 (0–∞) ng · h/mL
[6]; 20 mg/kg (p.o.), 0–6 hr
  AUC (total area under the plasma concentration versus time curve): 2190 (0–6 hr) ng · h/mL
[6]; 20 mg/kg (p.o.), 0–∞
  AUC (total area under the plasma concentration versus time curve): 3615 (0–∞) ng · h/mL
[6]; 20 mg/kg (p.o.), line of AUC 0–6 hr
  CL (apparent plasma clearance): 152.24 mL/min/kg
[6]; 20 mg/kg (p.o.), line of AUC 0–∞
  CL (apparent plasma clearance): 92.21 mL/min/kg
[6]; [13]
  clearance: 31.7 mL/min/kg
  MRT: 24 min
[6]; [14]
  clearance: 30.9 mL/min/kg
  MRT: 36 min
[6]; po, 20 mg/kg, 20 mg/kg (p.o.), line of AUC 0–6 hr
  MRT: 138 min
[6]; po, 20 mg/kg, 20 mg/kg (p.o.), line of AUC 0–∞
  MRT: 390 min
[2]
  concentration at 15 min: 693 ng/mL

## COc1cc(CC(=O)N2CC(O)C(O)C2C(=O)N2CCN(CC(=O)O)CC2)ccc1NC(=O)Nc1ccccc1C (stereo not shown) [Compound 195]
In vivo [9]; plasma, iv
  clearance: 4 mL/min/kg
In vivo [9]; serum, intravenous
  concentration at 5 min: 65.4 µg/mL
  concentration at 30 min: 3900 ng/mL
  concentration at 1 hr: 2220 ng/mL
  concentration at 2 hr: 772 ng/mL
  concentration at 4 hr: 194 ng/mL
  concentration at 8 hr: 28 ng/mL
[10]
  AUC (total area under the plasma concentration versus time curve): 8405 ng·h/mL

— patent US7179819B2, “VLA-4 inhibitor compounds” (Daiichi Pharmaceutical Co., Ltd., priority 1999, dated 2007)
